Experimental data reported in article PMC10768243 (Microbial Cell Factories, 2024).

Molecular target: topoisomerase II
Assay: topoisomerase II activity inhibition assay (isoform not given)
Type: biochemical

Work on `CC[C@@]1(O)C(=O)OCc2c1cc1n(c2=O)Cc2cc3ccccc3nc2-1` [camptothecin] yielded an IC50 of 0.52 nM.
